Laboratory results from US9260400B2, “I-arylpiperazinic ligands of 5-HT7 receptor and use thereof” (UNIVERSITA' DEGLI STUDI DI BARI “ALDO MORO”, priority 2011, dated 2016).

What was measured:
[1] = after 20 minutes following i.p injection; cited from earlier work
[2] = target: T1, human cloned 5-HT7 receptor (Homo sapiens, UniProt P34969); experiment: Radioligand binding assay at human cloned 5-HT7 receptors ([3H]-5-CT competition); conditions: read-out: 5-HT7 (pKi) (converted)
T1 construct: expressed in transfected cells
T1 sequence (P34969 whole entry): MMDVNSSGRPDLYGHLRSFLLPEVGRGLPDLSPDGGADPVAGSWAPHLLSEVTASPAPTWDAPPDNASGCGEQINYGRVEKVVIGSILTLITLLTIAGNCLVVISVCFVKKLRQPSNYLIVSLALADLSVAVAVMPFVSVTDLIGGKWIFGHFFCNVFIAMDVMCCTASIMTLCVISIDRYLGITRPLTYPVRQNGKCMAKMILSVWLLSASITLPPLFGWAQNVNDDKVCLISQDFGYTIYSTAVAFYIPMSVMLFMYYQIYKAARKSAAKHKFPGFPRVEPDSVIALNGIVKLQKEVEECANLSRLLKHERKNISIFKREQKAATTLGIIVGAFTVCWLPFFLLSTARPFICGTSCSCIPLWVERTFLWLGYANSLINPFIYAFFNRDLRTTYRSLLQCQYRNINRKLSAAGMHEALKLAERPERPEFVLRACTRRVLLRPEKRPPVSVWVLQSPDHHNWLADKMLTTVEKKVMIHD
Experimental: Radioligand Binding Assay At Human Cloned 5-HT7 Receptors
Functionality assays on the 5-HT7 receptor were done according to Jasper et al [Br. J. Pharmacol. 1997, 122, 126.] with minor modifications. The test is a competition assay based on binding of [^3H]-5-CT at human cloned 5-HT7 receptor. In 0.5 mL of incubation buffer (50 mM Tris-HCl, 10 mM MgSO4 and 0.5 mM EDTA, pH 7.4) were suspended 34 μg of membranes, 1.5 nM [^3H]-5-CT, the drugs or reference compound (six to nine concentrations). The samples were incubated for 120 min at 27° C. The incubation was stopped by rapid filtration on Whatman GF/C glass microfiber filters (pre-soaked in 0.3% polyethylenimine for 30 min). The filters were washed with 3×1 mL of ice-cold buffer (50 mM Tris-HCl, pH 7.4). Nonspecific binding was determined in the presence of 10 μM 5-CT. Approximately 90% of specific binding was determined under these conditions.
(§1) Competition binding data were analyzed using the GraphPad Prism Software (GraphPad Software, Inc., San Diego, Calif., USA). The value for the inhibition constant, Ki, was calculated by using the Cheng-Prusoff equation [Anal. Biochem. 1980, 107, 200-239].

[3] = target: T2, Human 5-HT1A serotonin receptors (Homo sapiens, UniProt P08908); experiment: Radioligand binding assay at human cloned 5-HT1A receptor ([3H]-8-OH-DPAT); conditions: compound at 10−7M
T2 construct: expressed in transfected cells; host or cells: HEK293-EBNA
T2 sequence (P08908 1-422): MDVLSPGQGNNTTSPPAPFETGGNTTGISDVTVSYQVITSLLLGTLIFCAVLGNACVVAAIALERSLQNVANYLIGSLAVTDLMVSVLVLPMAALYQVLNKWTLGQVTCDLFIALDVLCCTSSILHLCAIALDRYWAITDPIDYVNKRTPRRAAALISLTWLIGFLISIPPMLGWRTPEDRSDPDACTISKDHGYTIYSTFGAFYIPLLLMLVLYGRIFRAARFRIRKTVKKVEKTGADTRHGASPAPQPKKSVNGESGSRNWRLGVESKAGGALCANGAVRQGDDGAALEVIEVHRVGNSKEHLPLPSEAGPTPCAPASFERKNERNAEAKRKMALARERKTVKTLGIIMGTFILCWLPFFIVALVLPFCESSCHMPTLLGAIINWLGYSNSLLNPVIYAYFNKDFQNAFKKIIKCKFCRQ
Experimental: Radioligand Binding Assay At Human Cloned 5-HT1A Receptor
Human 5-HT1A serotonin receptors stably expressed in HEK293-EBNA cells were radiolabeled with 1.0 nM [^3H]-8-OH-DPAT [J. Biol. Chem. 1989, 264, 14848]. Samples containing 32 μg of membrane protein, different concentrations of each compound ranging from 0.1 nM to 10 μM were incubated in a final volume of 500 μL of 50 mM Tris-HCl pH 7.4, 5 mM MgSO4 for 120 min at […]. After this incubation time, samples were filtered through Whatman GF/C glass microfiber filters pre-soaked in polyethylenimine 0.5% for at least 30 min prior to use. The filters were washed twice with 1 ml of ice-cold buffer (50 mM Tris-HCl, pH 7.4). Nonspecific binding was determined in the presence of 10 μM 5-HT.
as §1

[4] = In vitro metabolic stability using liver S9 fractions; format: in vitro ADME; conditions: 10 μM compound, 1 mg/ml rat liver S9, 30 min at 37° C.
Experimental: Determination of in vitro Metabolic Stability Using Liver S9 Fractions
Tested compounds (10 μM) were incubated with rat liver S9 fractions (1 mg/ml), liver S9 fractions are subcellular fractions that contain drug-metabolizing enzymes such as cytochromes P450, flavin monooxygenases, and UDP glucuronyl transferases.
The incubation was performed in 100 mM phosphate buffer (pH 7.4) containing 1.3 mM of NADP+, 3.3 mM glucose 6-phosphate and 0.4 U/ml glucose 6-phosphate dehydrogenase, 3.3 mM MgCl2 in a total volume of 1 mL. Incubations were commenced with the addition of glucose 6-phosphate dehygrogenase and carried out for 30 min. at 37° C. The reaction was stopped by adding 1 mL of cooled acetonitrile. The samples were centrifuged at 4600 rpm for 10 min at 4° C. The supernatant was separated and the acetonitrile phase was analyzed by using a reversed-phase HPLC equipped with a Perkin-Elmer series 200 LC pump and a Perkin-Elmer 785A UV/VIS detector. UV signals were monitored and obtained peaks integrated using a personal computer running Perkin-Elmer Turbochrom Software. The column used was a Phenomenex Gemini C-18 (250×4.6 mm, 5 μm particle size). The samples were eluted with ammonium formate (20 mM; pH 6.7) and acetonitrile 80:20 v/v at a flow rate of 1 mL/min and at the appropriate UV wavelength. The sample injection volume was 20 μL.
This assay provides information on the xenobiotic metabolism of the tested compounds; the results obtained are reported in table 1.

Row | Structure (SMILES) | plasma and brain concentration [1] | Ki [2] [nM] | 5-HT1A (% displacement of radioligand at 10−7M conc.) [3] [%] | % parent compound after incubation with rat liver S9 fractions [4] [%]
1 | CSc1ccccc1N1CCN(CCCCCC(=O)NC2CCCc3ccccc32)CC1 (stereo not shown) [LP-44] | undetectable | – | – | –
2 | FCCOc1ccc(OCCN2CCN(c3ncccc3-c3ccccn3)CC2)cc1 [Example 18, 1-[2-[4-(2-Fluoroethoxy)phenoxy]ethyl]-4-[3-(2-pyridyl)-2-pyridyl]piperazine] | – | 20 | 20 | 68
3 | COc1ccc(CNC(=O)CCCCCN2CCN(c3ncccc3-c3ccccn3)CC2)cc1 [Example 24, N-[(4-Methoxyphenyl)methyl]-6-[4-[3-(2-pyridyl)-2-pyridyl]piperazin-1-yl]hexanamide] | – | 5.75 | 31 | 80
4 | COc1ccc(OCC(O)CN2CCN(c3ccccc3-c3ccccc3)CC2)cc1 (stereo not shown) [Example 1, 1-(4-Methoxyphenoxy)-3-[4-(2-biphenyl)piperazin-1-yl] propan-2-ol] | – | 16.6 | 46 | 35
5 | COc1ccc(-c2ccccc2N2CCN(CCCCCC(=O)NCc3ccccn3)CC2)cc1 [Example 21, 4-[2-(4-Methoxyphenyl)phenyl]-N-(2-pyridinylmethyl)-1-piperazinehexanamide] | – | 1.62 | 37 | 55
6 | COc1ccc(OCC(O)CN2CCN(c3ncccc3-c3ccncc3)CC2)cc1 (stereo not shown) [Example 5, 1-(4-Methoxyphenoxy)-3-[4-[3-(4-pyridyl)-2-pyridyl]piperazin-1-yl]propan-2-ol] | – | 7.59 | 26 | 82
7 | COc1cccc(C(F)CN2CCN(c3ncccc3-c3ccccn3)CC2)c1 (stereo not shown) [Example 12, 1-[2-Fluoro-2-(3-methoxyphenyl)ethyl]-4-[3-(2-pyridyl)-2-pyridyl)piperazine] | – | 6.92 | 25 | 84
8 | COc1cccc(OCCN2CCN(c3ncccc3-c3ccccn3)CC2)c1 [Example 15, 1-[2-(3-Methoxyphenoxy)ethyl]4-[3-(2-pyridyl)-2-pyridyl]piperazine] | – | 5.37 | 35 | 78
